Holding throughout (assay type): in vivo
One series concerns Digitaria ciliaris. Nature of the series: Test Example 4: herbicidal effect by application to foliage (diluvial soil, plastic box). As to conditions: foliage application, 320 g/ha. In short, it runs like this:
(§1)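 Greenhouse plants (25° C. to 30° C., 14 d, diluvial soil) receive a foliar spray of water-diluted emulsifiable formulation at defined g/ha. Grading after 3 weeks uses a six-step herbicidal-ratio scale, with 4 covering 70% to <90% and 1 covering 5% to <20%.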

A further series deals with Abutilon theophrasti. Described as above. As to conditions: foliage application, 320 g/ha. In short, it runs like this: as §1
A further series concerns Amaranthus retroflexus. The series is described as above. Particulars: foliage application, 320 g/ha. In short, it runs like this: as §1
The test system of a further series is Galium spurium. The description is as above. As to conditions: foliage application, 320 g/ha. In short, it runs like this:
as §1

A further series has as its system Veronica persica. Described as above. As to conditions: foliage application, 320 g/ha. In short, it runs like this:
as §1

For the next series, the system named is Avena fatua. The series is described as above. As to conditions: foliage application, 320 g/ha. In short, it runs like this:
as §1

A further series relates to Setaria viridis. The series is described as above. As to conditions: foliage application, 320 g/ha. In short, it runs like this: as §1
Series [1] deals with Echinochloa crus-galli var. crus-galli. Described as above. As to conditions: foliage application, 320 g/ha. In short, it runs like this: as §1
The next series concerns Chenopodium album. The series is described as above. As to conditions: foliage application, 320 g/ha. In short, it runs like this:
as §1

The test system of the next series is Apera spica-venti. The series is described as above. As to conditions: foliage application, 320 g/ha. In short, it runs like this:
as §1

The next series concerns Lolium multiflorum Lam. The description is as above. Particulars: foliage application, 320 g/ha. In short, it runs like this:
as §1

The test system of another series is Alopecurus myosuroides. The description is as above. As to conditions: foliage application, 320 g/ha. In short, it runs like this:
as §1

In another series the test system is Stellaria media. The series is described as above. As to conditions: foliage application, 320 g/ha. In short, it runs like this: as §1
A further series relates to Leptochloa chinensis. The experiment in a line: Test Example 3: herbicidal effect by application to foliage (Wagner pot, water depth 0.1-0.5 cm). Particulars: Nineteenth Table; application to foliage; application herbicide amount 320 g/ha. In short, it runs like this: (§2)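 Wagner pot foliar test: sow, grow 14 d (25–30 °C), spray diluted emulsion at set g/ha, score after 3 wk; 0 ≤5%, 5 ≥90% herbicidal ratio.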

The next series concerns Cyperus difformis. The series is described as above. Particulars: Nineteenth Table; application to foliage; application herbicide amount 320 g/ha. In short, it runs like this: as §2
Series [2] deals with Echinochloa crus-galli var. crus-galli. The description is as above. As to conditions: Nineteenth Table; application to foliage; application herbicide amount 320 g/ha. In short, it runs like this: as §2
Series [3] has as its system Beta vulgaris ssp. vulgaris. The experiment in a line: Test Example 4: effect on crop by application to foliage (diluvial soil, plastic box). Particulars: foliage application, 320 g/ha. In short, it runs like this: as §1
Another series concerns Triticum aestivum. Described as above. Particulars: foliage application, 320 g/ha. In short, it runs like this:
as §1

For series [4], the system named is directly sowed Oryza sativa. The series is described as above. As to conditions: foliage application, 320 g/ha. In short, it runs like this:
as §1

In the next series the test system is Brassica campestris L. Described as above. As to conditions: foliage application, 320 g/ha. In short, it runs like this: as §1
In another series the test system is Zea mays. Described as above. Particulars: foliage application, 320 g/ha. In short, it runs like this:
as §1

The subject of the next series is Glycine max. The series is described as above. Particulars: foliage application, 320 g/ha. In short, it runs like this:
as §1

For the compound `Cn1nnnc1NC(=O)c1ccc(C(F)(F)F)n2c(CC[S+](C)[O-])nnc12` (stereo not drawn) [2-058], in the series with Digitaria ciliaris, the “F (Digitaria ciliaris) herbicidal effect grade” value is 5 (Herbicidal ratio of 90% or more (almost completely withered)). Also, the “M (Abutilon theophrasti) herbicidal effect grade” value with Abutilon theophrasti is given as 5 (Herbicidal ratio of 90% or more (almost completely withered)). In the series with Amaranthus retroflexus, the “N (Amaranthus retroflexus) herbicidal effect grade” value is recorded as 5 (Herbicidal ratio of 90% or more (almost completely withered)). In the series with Galium spurium, the “Q (Galium spurium) herbicidal effect grade” value is given as 5 (Herbicidal ratio of 90% or more (almost completely withered)). Moreover, the “R (Veronica persica) herbicidal effect grade” value in the series on Veronica persica is recorded as 5 (Herbicidal ratio of 90% or more (almost completely withered)). Moreover, the “I (Avena fatua) herbicidal effect grade” value in the series with Avena fatua was 5 (Herbicidal ratio of 90% or more (almost completely withered)). In the series on Setaria viridis, the “G (Setaria viridis) herbicidal effect grade” value was 5 (Herbicidal ratio of 90% or more (almost completely withered)). For the same compound, the “H (Echinochloa crus-galli var. crus-galli) herbicidal effect grade” value in series [1] is listed as 5 (Herbicidal ratio of 90% or more (almost completely withered)). For the same compound, the “O (Chenopodium album) herbicidal effect grade” value in the series on Chenopodium album is 5 (Herbicidal ratio of 90% or more (almost completely withered)). The “L (Apera spica-venti.) herbicidal effect grade” value in the series with Apera spica-venti. is 4 (Herbicidal ratio of 70% or more and less than 90%). For the same compound, the “K (Lolium multiflorum Lam.) herbicidal effect grade” value in the series on Lolium multiflorum Lam. was 4 (Herbicidal ratio of 70% or more and less than 90%). The “J (Alopecurus myosuroides) herbicidal effect grade” value in the series with Alopecurus myosuroides was 4 (Herbicidal ratio of 70% or more and less than 90%). Further, in the series with Stellaria media, the “P (Stellaria media) herbicidal effect grade” value is 5 (Herbicidal ratio of 90% or more (almost completely withered)). The “D (herbicidal effect grade)” value in the series with Leptochloa chinensis was 5 (Herbicidal ratio of 90% or more (almost completely withered)). Besides, the “E (herbicidal effect grade)” value in the series with Cyperus difformis is on record as 5 (Herbicidal ratio of 90% or more (almost completely withered)). Also, the “H (herbicidal effect grade)” value in series [2] is recorded as 5 (Herbicidal ratio of 90% or more (almost completely withered)). The “f (Beta vulgaris ssp. vulgaris) effect on crop grade” value in [3] is given as 5 (Herbicidal ratio of 90% or more (almost completely withered)). Moreover, in the series on Triticum aestivum, the “e (Triticum aestivum) effect on crop grade” value (from here on “e (Triticum aestivum) effect”) was 5 (Herbicidal ratio of 90% or more (almost completely withered)). Moreover, the “d (directly sowed Oryza sativa) effect on crop grade” value in [4] is 5 (Herbicidal ratio of 90% or more (almost completely withered)). Moreover, the “g (Brassica campestris L.) effect on crop grade” value in the series on Brassica campestris L. is on record as 5 (Herbicidal ratio of 90% or more (almost completely withered)). For the same compound, the “b (Zea mays) effect on crop grade” value in the series on Zea mays is listed as 5 (Herbicidal ratio of 90% or more (almost completely withered)). The “c (Glycine max) effect on crop grade” value in the series on Glycine max was 3 (Herbicidal ratio of 40% or more and less than 70%).

Regarding `Cn1nnnc1NC(=O)c1ccc(C(F)(F)F)n2c(-c3ccc(Cl)nc3)nnc12` [2-060], the “F (Digitaria ciliaris) herbicidal effect grade” value in the series with Digitaria ciliaris was 5 (Herbicidal ratio of 90% or more (almost completely withered)). Besides, the “M (Abutilon theophrasti) herbicidal effect grade” value in the series on Abutilon theophrasti was 5 (Herbicidal ratio of 90% or more (almost completely withered)). For the same compound, the “N (Amaranthus retroflexus) herbicidal effect grade” value in the series on Amaranthus retroflexus is reported as 5 (Herbicidal ratio of 90% or more (almost completely withered)). In addition, in the series on Galium spurium, the “Q (Galium spurium) herbicidal effect grade” value is 4 (Herbicidal ratio of 70% or more and less than 90%). The “R (Veronica persica) herbicidal effect grade” value with Veronica persica is given as 5 (Herbicidal ratio of 90% or more (almost completely withered)). Besides, the “I (Avena fatua) herbicidal effect grade” value in the series on Avena fatua was 4 (Herbicidal ratio of 70% or more and less than 90%). In addition, the “G (Setaria viridis) herbicidal effect grade” value with Setaria viridis is 5 (Herbicidal ratio of 90% or more (almost completely withered)). Further, the “H (Echinochloa crus-galli var. crus-galli) herbicidal effect grade” value in [1] is reported as 5 (Herbicidal ratio of 90% or more (almost completely withered)). Besides, the “O (Chenopodium album) herbicidal effect grade” value with Chenopodium album was 5 (Herbicidal ratio of 90% or more (almost completely withered)). Further, the “L (Apera spica-venti.) herbicidal effect grade” value in the series with Apera spica-venti. is 4 (Herbicidal ratio of 70% or more and less than 90%). Besides, in the series with Lolium multiflorum Lam., the “K (Lolium multiflorum Lam.) herbicidal effect grade” value is 3 (Herbicidal ratio of 40% or more and less than 70%). The “J (Alopecurus myosuroides) herbicidal effect grade” value in the series on Alopecurus myosuroides was 3 (Herbicidal ratio of 40% or more and less than 70%). In addition, the “P (Stellaria media) herbicidal effect grade” value with Stellaria media was 5 (Herbicidal ratio of 90% or more (almost completely withered)). In addition, the “D (herbicidal effect grade)” value in the series with Leptochloa chinensis is reported as 5 (Herbicidal ratio of 90% or more (almost completely withered)). The “E (herbicidal effect grade)” value in the series with Cyperus difformis was 5 (Herbicidal ratio of 90% or more (almost completely withered)). In [2], the “H (herbicidal effect grade)” value was 5 (Herbicidal ratio of 90% or more (almost completely withered)). The “f (Beta vulgaris ssp. vulgaris) effect on crop grade” value in series [3] is listed as 5 (Herbicidal ratio of 90% or more (almost completely withered)). Moreover, the “e (Triticum aestivum) effect” value in the series on Triticum aestivum is 4 (Herbicidal ratio of 70% or more and less than 90%). Further, in series [4], the “d (directly sowed Oryza sativa) effect on crop grade” value is 4 (Herbicidal ratio of 70% or more and less than 90%). Further, in the series with Brassica campestris L., the “g (Brassica campestris L.) effect on crop grade” value is given as 5 (Herbicidal ratio of 90% or more (almost completely withered)). Also, the “b (Zea mays) effect on crop grade” value in the series with Zea mays is given as 5 (Herbicidal ratio of 90% or more (almost completely withered)). Further, in the series with Glycine max, the “c (Glycine max) effect on crop grade” value was 2 (Herbicidal ratio of 20% or more and less than 40%).

Regarding `Cn1nnnc1NC(=O)c1ccc(C(F)(F)F)n2c(CCS(C)(=O)=O)nnc12` [2-059], the “F (Digitaria ciliaris) herbicidal effect grade” value with Digitaria ciliaris is on record as 5 (Herbicidal ratio of 90% or more (almost completely withered)). The “M (Abutilon theophrasti) herbicidal effect grade” value in the series with Abutilon theophrasti is on record as 5 (Herbicidal ratio of 90% or more (almost completely withered)). In addition, in the series with Amaranthus retroflexus, the “N (Amaranthus retroflexus) herbicidal effect grade” value was 5 (Herbicidal ratio of 90% or more (almost completely withered)). The “Q (Galium spurium) herbicidal effect grade” value in the series with Galium spurium is reported as 5 (Herbicidal ratio of 90% or more (almost completely withered)). In the series with Veronica persica, the “R (Veronica persica) herbicidal effect grade” value is given as 5 (Herbicidal ratio of 90% or more (almost completely withered)). The “I (Avena fatua) herbicidal effect grade” value in the series on Avena fatua is 4 (Herbicidal ratio of 70% or more and less than 90%). Also, the “G (Setaria viridis) herbicidal effect grade” value in the series on Setaria viridis is 5 (Herbicidal ratio of 90% or more (almost completely withered)). Moreover, in [1], the “H (Echinochloa crus-galli var. crus-galli) herbicidal effect grade” value is recorded as 5 (Herbicidal ratio of 90% or more (almost completely withered)). The “O (Chenopodium album) herbicidal effect grade” value with Chenopodium album is reported as 5 (Herbicidal ratio of 90% or more (almost completely withered)). Besides, the “L (Apera spica-venti.) herbicidal effect grade” value in the series on Apera spica-venti. was 4 (Herbicidal ratio of 70% or more and less than 90%). Besides, the “K (Lolium multiflorum Lam.) herbicidal effect grade” value in the series on Lolium multiflorum Lam. was 4 (Herbicidal ratio of 70% or more and less than 90%). Moreover, the “J (Alopecurus myosuroides) herbicidal effect grade” value in the series on Alopecurus myosuroides was 4 (Herbicidal ratio of 70% or more and less than 90%). Besides, the “P (Stellaria media) herbicidal effect grade” value in the series on Stellaria media is 5 (Herbicidal ratio of 90% or more (almost completely withered)). For the same compound, in the series with Leptochloa chinensis, the “D (herbicidal effect grade)” value is given as 5 (Herbicidal ratio of 90% or more (almost completely withered)). Moreover, the “E (herbicidal effect grade)” value in the series on Cyperus difformis is listed as 5 (Herbicidal ratio of 90% or more (almost completely withered)). In addition, the “H (herbicidal effect grade)” value in series [2] is recorded as 5 (Herbicidal ratio of 90% or more (almost completely withered)). For the same compound, the “f (Beta vulgaris ssp. vulgaris) effect on crop grade” value in series [3] is listed as 5 (Herbicidal ratio of 90% or more (almost completely withered)). Moreover, the “e (Triticum aestivum) effect” value in the series with Triticum aestivum is 4 (Herbicidal ratio of 70% or more and less than 90%). For the same compound, in [4], the “d (directly sowed Oryza sativa) effect on crop grade” value is listed as 5 (Herbicidal ratio of 90% or more (almost completely withered)). Further, in the series on Brassica campestris L., the “g (Brassica campestris L.) effect on crop grade” value is reported as 5 (Herbicidal ratio of 90% or more (almost completely withered)). In addition, the “b (Zea mays) effect on crop grade” value in the series with Zea mays is given as 5 (Herbicidal ratio of 90% or more (almost completely withered)). Moreover, the “c (Glycine max) effect on crop grade” value with Glycine max is 3 (Herbicidal ratio of 40% or more and less than 70%).

(Values after US9708314B2, “Heterocyclic amide compound” (NISSAN CHEMICAL INDUSTRIES, LTD., priority 2013, dated 2017).)
